Data on one molecule can be found in publication PMC8218751, “Visualizing Borrelia burgdorferi Infection Using a Small-Molecule Imaging Probe” (Journal of Clinical Microbiology, 2021).

Molecules are shown by their SMILES. Entries after “also recorded” stand apart in the source; their conditions may differ.

For one assay, the system named is B. burgdorferi. Nature of the assay: Fixed or denatured B. burgdorferi imaging, flagellin costaining and CLEM. Format: cell-based, Borrelia burgdorferi. On the procedure: Bacterial cultures in logarithmic phase were washed and resuspended in phosphate-buffered saline (PBS). Suspension was added to a positively charged slide, and an equal volume of 3:1 methanol-acetic acid was added to the suspension for 5 min. Slides were washed with 0.01% Tween 20/PBS (PBS-T) followed by PBS. Ten percent nonfat dry milk/PBS blocking solution was added for 45 min. Slides were washed with PBS and incubated for 45 min with 1:500 flagellin antibody (Rockland 200-401-C14) diluted in 1% nonfat dry milk/PBS. Slides were washed with PBS-T and then incubated for 30 min with FITC-conjugated anti-rabbit (Invitrogen catalog number A11008; 1:500 dilution), containing 10 μM HS-198. […].
Correlative light electron microscopy (CLEM) was performed by Shannon Modla and Jeff Caplan at the bioimaging center of the Delaware Biotechnology Institute. Cells were attached to an Ibidi μ-dish containing an imprinted 500-μm cell location grid using 4% paraformaldehyde (PFA) for 20 min. Cells were then incubated with 10 μM HS-198 for 10 min followed by a PBS wash. PBS filled the dish to the top for transport to the Delaware Institute for further processing. The cells were then imaged using Zeiss 880 Airyscan. […]

For another assay, the target named is T. denticola HtpG (Treponema denticola, UniProt P61188). Description: FLECS assay, elution of GFP-HtpG from ATP Sepharose. The assay is classed as binding. Conditions: in words. How it is done: Escherichia coli (strain BL21/DE3) genomic DNA was isolated from a lab culture generated from the cloning/expression bacterium (ThermoFisher catalog no. EC0114) by overnight proteinase K digestion at 56°C, high-salt clarification, and ethanol precipitation. B. burgdorferi (strain B31) and Treponema denticola genomic DNAs were obtained from the American Type Culture Collection (Manassas, VA; ATCC 35210 and 35405, respectively). Human Hsp90-alpha sequences were derived from cDNA generated from total mRNA of the human breast epithelial line, MCF10A. HtpG DNA sequences were PCR cloned from these DNAs using primers designed to allow in-frame cloning with GFP in the isopropyl-β-D-thiogalactopyranoside (IPTG)-inducible bacterial expression vector. 1GFP (pET His6 GFP TEV [tobacco etch virus] LIC [ligation-independent cloning] vector) was a gift from Scott Gradia (Addgene plasmid #29663; http://n2t.net/addgene:29663; RRID:Addgene_29663). Fusion protein cloning was done using the ligation-independent cloning procedure via single-nucleotide T4 DNA polymerase treatment of vector and purified PCR products followed by annealing of complementary single-strand ends before transformation into DH5 E. coli. Proper fusion junctions and fidelity of cloned inserts were confirmed by sequencing, and then the plasmid was transformed into E. coli BL21(DE3) for protein expression. Fusion protein synthesis was induced by incubation with 1 mM IPTG or autoinduction ([17]). Production of GFP-HtpG/Hsp90 was confirmed by identification of GFP and HtpG peptides with matrix-assisted laser desorption ionization (MALDI) using an AB Sciex 5800 time of flight (TOF)/TOF mass spectrometer in the induced band identified on an SDS-PAGE gel. To complete binding curves, several liters of induced cultures was generated, pelleted with centrifugation of 3,150 × g for 15 min, flash frozen in liquid nitrogen, and then stored at −80°C until subsequent fluorescent-linked enzyme chemoproteomic strategy (FLECS) analysis.
Chain of T. denticola HtpG (P61188 whole entry): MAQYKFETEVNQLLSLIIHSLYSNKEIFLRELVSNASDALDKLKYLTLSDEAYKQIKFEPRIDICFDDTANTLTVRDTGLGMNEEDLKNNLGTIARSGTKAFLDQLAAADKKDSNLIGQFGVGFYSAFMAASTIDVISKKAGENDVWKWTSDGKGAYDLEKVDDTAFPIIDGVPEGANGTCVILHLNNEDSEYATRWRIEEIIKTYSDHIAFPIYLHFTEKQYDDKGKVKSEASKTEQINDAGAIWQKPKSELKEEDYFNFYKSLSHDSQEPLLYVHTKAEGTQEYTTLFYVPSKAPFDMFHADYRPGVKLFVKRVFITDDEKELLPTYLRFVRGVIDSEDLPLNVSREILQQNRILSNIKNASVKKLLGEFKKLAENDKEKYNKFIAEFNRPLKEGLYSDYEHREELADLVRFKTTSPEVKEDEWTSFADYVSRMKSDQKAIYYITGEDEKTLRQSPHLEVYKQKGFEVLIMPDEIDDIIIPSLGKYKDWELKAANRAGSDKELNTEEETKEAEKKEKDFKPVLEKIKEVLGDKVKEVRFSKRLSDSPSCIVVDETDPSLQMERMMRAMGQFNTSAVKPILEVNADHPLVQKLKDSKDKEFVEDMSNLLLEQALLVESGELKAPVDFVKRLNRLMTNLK
γ-linked ATP Sepharose matrix was generated as described previously by the Haystead lab ([18]). BL21 bacterial pellets expressing GFP-fusion proteins of E. coli, B. burgdorferi, and T. denticola HtpGs and human Hsp90 were lysed with B-PER complete bacterial protein extraction reagent (Thermo Scientific catalog number 89821) and centrifuged at 96,000 relative centrifugal force (RCF) (Beckman Coulter type 45 Ti fixed-angle rotor) to pellet insoluble BL21 material. The clarified lysate was added to a column containing ATP-bound Sepharose. The column was washed with low-salt buffer (150 mM NaCl, 25 mM HEPES, pH 7.4, 1 mM dithiothreitol [DTT], and 60 mM MgCl2), followed by high-salt buffer (1 M NaCl, 25 mM HEPES, pH 7.4, 1 mM DTT, 0.1% IGEPAL, and 60 mM MgCl2) and once again low-salt buffer to remove unbound protein. Next, the resin with bound proteins (50 μl) was transferred to a 0.2-μm polyvinylidene fluoride filter 96-well plate (Corning) sitting on top of a black flat-bottomed 96-well catch plate (Corning). Small molecules or ATP was added to each well (50 μl), and the plates were centrifuged using an Eppendorf 5810 centrifuge at 1,100 rpm (220 RCF) for 1 min. The eluted proteins were measured in a fluorescent plate reader to detect the GFP. Some compounds are autofluorescent, and so to confirm fusion protein elution, samples were analyzed by classic SDS-PAGE methods followed by silver staining and MALDI mass spectrometry using a AB Sciex 5800 TOF/TOF mass spectrometer.
Subtle single amino acid differences are present within the catalytic clefts of these proteins, especially between residues that contact the nucleotide. […] We therefore reasoned that these differences may be sufficient to design small molecules that can similarly discriminate HtpG of stealth organisms. To test this hypothesis, we utilized a fluorescent-linked enzyme chemoproteomic strategy (FLECS) assay to test known Hsp90 inhibitors ([18]) for binding to various HtpG constructs. […]

Consider `Cc1nn(-c2ccc(C(=O)N(C)C)c(NCCCOCCOCCOCCOCCOCCCNCc3ccc(C(=C\C=C4/N(CCCCS(=O)(=O)O)c5ccccc5C4(C)C)/C=C/C4=[N+](CCCCS(=O)(=O)[O-])c5ccccc5C4(C)C)cc3)c2)c2c1C(=O)CC(C)(C)C2` [HS-198], for which, in the assay with B. burgdorferi (10 μM, flagellin antibody costaining, CLEM), the “Localization within the spirochete” value is given as “accumulated inside the protoplasmic cylinder”. The “Staining of denatured spirochetes” value with B. burgdorferi (heat denaturation (5 min at 90°C or 15 min at 50°C) or alcohol fixation (2:1 ethanol), data not shown) is “capable of staining spirochetes”. Also, on T. denticola HtpG, the “Release of T. denticola HtpG from immobilized ATP resin” value is “unable to release; also recorded: inactive”.
